Where two headings read alike, the source gives them in different places. Peptide text beside a SMILES is read from it.
Legend:
rat peritoneal cells = test: Ex vivo histamine release assay in rat peritoneal cells (vs. Compound 48/80); assay type: cell-based
Text: More desirable pharmacological tolerability can include a decrease in an undesirable side effect (e.g., histamine release, an indicator of mast cell degranulation) without a significant loss in activity of the compound.
Screening of the variant G protein receptor compounds against a control compound for histamine release can be done following standard assays. The standard assay can include comparison to a control compound known to elicit a histamine response (e.g., 48/80 having CAS No. 94724-12-6). Such an assay using rat peritoneal cells is described herein for the APJ compounds.
Test compounds were assayed in the ex vivo histamine release assay using a 3-point dose response. Concentrations of total histamine contained in the cells is used to correct for variability in the numbers of mast cells in the lavage per well.
Resident peritoneal cells were harvested from naïve Sprague Dawley rats (male 200-300 gr, Charles River). Rats were euthanized by CO2 asphyxiation and a skin incision was made along the middle-line of the abdomen. Thirty milliliters of HBSS (HyClone, cat#SH 30268.01) containing 20 mM HEPES and 0.2% BSA (heretofore Assay Buffer) were injected intraperitoneally using a 30 mL syringe with the attached 18 gauge needle. The abdomen was gently lavaged for 1-2 min and 7-10 milliliters of the peritoneal lavage were carefully aspirated. Cell count in the peritoneal lavage was determined using Cellometer Auto T4 (Nexcelom Bioscience). The peritoneal cell count was adjusted to […] cells/mL in Assay Buffer. Rat peritoneal cells were kept at room temperature before and during the assay.
For the 10-point assay, 3-fold serial dilutions were prepared for each test compound in 100% DMSO in 96-well plates (Greiner Bio One, Ref#651261)—from 100 μM down to […]. For the 3-point assay, 10-fold serial dilutions were prepared in 100% DMSO at 100 μM, 10 μM and 1 μM concentrations. From this plate, 5 μL of compound were transferred to a new plate containing 45 μL Assay Buffer to generate a compound plate with 10× final concentrations in 10% DMSO with Assay Buffer. In the final plates, column 11 contained 1% DMSO for the low-histamine-releasing control.
Suspensions of the rat peritoneal cells (90 μL of 2.75×10^5 cells/mL; →25,000 cells per well) were introduced into each well of a new 96-well microtiter plate (Greiner Bio One, Ref#651261) and 10 μL aliquots of the serially diluted compounds were transferred to the cells in each well. The microtiter plate was incubated for 30 min at room temperature. Following incubation cells were spun down (500 rpm, 7 min) and supernatants were collected for further analysis. Supernatants were diluted 6 times with the assay buffer (15 μL to 75 μL, for 90 μL total) and released histamine content was determined using HTRF® Histamine assay kit (CisBio, cat#62HTMPEB). To measure the total histamine in each well, cells were lysed by addition of 15 μL 5% TritonX-100 to each well followed by incubation for 15 minutes. The plates were then spun at 3000 rpm for 5 minutes, and 10 μL of supernatant were diluted 9-fold in assay buffer (10 μL to 80 μL for 90 μL total) to make the “total” histamine plate. Histamine content was measured as described above for the “released” histamine values.
The standard positive control was Compound 48/80 (Enzo Life Sciences), a oligomeric polymer mixture produced by the condensation of N-methyl-p-methoxyphenethylamine with formaldehyde. The trimer is the most abundant in the mixture Compound 48/80 is used to promote mast cell degranulation and activates G proteins by a mechanism analogous to that of mastoparan. […] See references: T. Higashijima et al., J. Biol., Chem., 265 14176 (1990); M. Mousli et al., FEBS Lett., 259 260 (1990); K. Gietzen et al., Biochim. Biophys. Acta, 736 109 (1983); K. Gietzen, Biochem. J., 1983 216 611 and C. Bronner et al., Biochim. Biophys. Acta, 920 301(1987).

[1] = biological target: T1, human APJ receptor (hAPJ) (Homo sapiens, UniProt P35414); test: HTRF cAMP assay: inhibition of NKH477-stimulated cAMP in HEK cells stably expressing hAPJ; assay type: cell-based; conditions: for % IA (cAMP inhibition, hAPJ HEK): intrinsic activity; for Ranking: composite class of EC50 (hAPJ), % IA and % histamine or formal (+) charge; for Emax: HEK293, read-out: % IA, bound stated; for inhibition of NKH477-stimulated increase in cAMP, dose dependent: concentration response curves, FIGS. 1 and 2, HEK cells stably expressing APJ
T1 construct: expressed in transfected cells
T1 sequence (P35414 1-380): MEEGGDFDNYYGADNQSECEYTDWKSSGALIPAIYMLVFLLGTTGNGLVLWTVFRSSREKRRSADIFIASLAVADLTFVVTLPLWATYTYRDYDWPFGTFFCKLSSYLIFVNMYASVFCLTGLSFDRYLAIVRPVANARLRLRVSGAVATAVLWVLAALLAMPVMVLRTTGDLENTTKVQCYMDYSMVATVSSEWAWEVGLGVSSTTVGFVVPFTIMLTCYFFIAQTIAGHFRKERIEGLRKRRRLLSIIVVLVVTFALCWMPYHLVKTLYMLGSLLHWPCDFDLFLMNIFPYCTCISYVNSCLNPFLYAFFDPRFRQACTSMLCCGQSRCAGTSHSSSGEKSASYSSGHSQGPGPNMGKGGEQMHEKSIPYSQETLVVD
Text: HTRF cAMP Assay and IP-One Assay (Cisbio)
HTRF (homogeneous time resolved fluorescence) is a technology developed by Cisbio Bioassays based on TR-FRET (time-resolved fluorescence resonance energy transfer). Cisbio Bioassays has developed a wide selection of HTRF-based assays compatible with whole cells, thereby enabling functional assays to run under more physiological conditions. The IP-One assays are competitive immunoassays using cryptate-labeled anti-IP1 monoclonal antibody and d2-labeled IP1. IP1 is a relatively stable downstream metabolite of IP3, and accumulates in cells following Gq receptor activation.
cAMP kits based on a competitive immunoassay using cryptate-labeled anti-cAMP antibody and d2-labeled cAMP were used to assay the effects of APJ compounds of the present invention. […] Cells are treated with 1 nG/mL doxycycline and seeded in all white 96 well plates @40 k/well overnight.

[2] = Table 6, hAPJ HEK cells, NKH477-stimulated cAMP, read-out: EC50 (cAMP inhibition, hAPJ HEK)
[3] = histamine release from rat peritoneal cells relative to Compound 48/80
[4] = EC50 (cAMP inhibition, hAPJ HEK), Table 6, hAPJ HEK cells, NKH477-stimulated cAMP
[5] = HTRF cAMP Assay, per data of Table 6

Structure (SMILES)	Histamine (% vs. 48/80) (rat peritoneal cells) [%]	EC50 [1, 2] [nM]	% IA (cAMP inhibition, hAPJ HEK) ([1]; Table 6, hAPJ HEK cells) [%]	Ranking [1]	Histamine (% vs. 48/80) (rat peritoneal cells; [3]) [%]	EC50 [1, 4] [nM]	EC50 ([1]; EC50 (hAPJ), inhibition of cAMP production, bound stated, HTRF cAMP Assay, per data of Table 6) [nM]	Emax [1, 5] [%]	inhibition of NKH477-stimulated increase in cAMP, dose dependent [1]	EC50 ([1]; HTRF cAMP Assay, per data of Table 6, read-out: EC50 (hAPJ), inhibition of cAMP production, bound stated) [nM]
CCCCCCCCCCCCCCCC(=O)N1CCC[C@H]1C(=O)N[C@@H](CCC(=O)O)C(=O)N[C@H](CCCCN)C(=O)N[C@@H](CCCNC(=N)N)C(=O)N[C@@H](CCCNC(=N)N)C(=O)N[C@@H](CO)C(=O)N[C@@H](C)C(=O)N[C@@H](CC(=O)O)C(=O)N[C@H](C(=O)N[C@@H](Cc1ccccc1)C(=O)N1CCC[C@H]1C(N)=O)[C@@H](C)CC [Compound 4] (HELM PEPTIDE1{[CCCCCCCCCCCCCCCC(=O)[*:2]].P.E.[dK].R.R.S.A.D.I.F.P.[am]}$$$$V2.0)	-1	9	48	* (EC50≦50 nM (hAPJ), % IA<50%)						
CCCCCCCCCCCCCCCC(=O)N[C@H](C(=O)N[C@H](C(=O)N[C@@H](Cc1ccccc1)C(=O)N[C@@H](CCCNC(=N)N)C(=O)N[C@@H](CO)C(=O)N[C@@H](CO)C(=O)N[C@@H](CCC(=O)O)C(=O)N[C@H](CCCN)C(=O)N[C@@H](CCCNC(=N)N)C(=O)N[C@@H](CCCNC(=N)N)C(=O)N[C@@H](CO)C(=O)N[C@@H](C)C(=O)N[C@@H](CC(=O)O)C(=O)N[C@H](C(=O)N[C@@H](Cc1ccccc1)C(=O)N[C@H](C(N)=O)[C@@H](C)CC)[C@@H](C)CC)C(C)C)[C@@H](C)O [Compound 8] (HELM PEPTIDE1{[CCCCCCCCCCCCCCCC(=O)[*:2]].T.V.F.R.S.S.E.[NCCC[C@@H](N[*:1])C(=O)[*:2]].R.R.S.A.D.I.F.I.[am]}$$$$V2.0)			99	***** (EC50≦25 nM (hAPJ), % IA≧80% and either % histamine≦35% or formal (+) charge≦1)	9	14	≤ 25	≥ 80	inhibited	
CCCCCCCCCCCCCCCC(=O)N1CCC[C@H]1C(=O)N[C@@H](CCCCNC(=O)[C@@H]1CCCN1C(=O)[C@H](Cc1ccccc1)NC(=O)[C@@H](NC(=O)[C@H](CC(=O)O)NC(=O)[C@H](C)NC(=O)[C@H](CO)NC(=O)[C@H](CCCNC(=N)N)NC(=O)[C@H](CCCNC(=N)N)NC(=O)[C@@H](CCCCN)NC(=O)[C@@H]1CCCN1C(C)=O)[C@@H](C)CC)C(=O)N[C@@H](CCCNC(=N)N)C(=O)N[C@@H](CCCNC(=N)N)C(=O)N[C@@H](CO)C(=O)N[C@@H](C)C(=O)N[C@@H](CC(=O)O)C(=O)N[C@H](C(=O)N[C@@H](Cc1ccccc1)C(=O)N1CCC[C@H]1C(N)=O)[C@@H](C)CC [Compound 9] (HELM PEPTIDE1{[CCCCCCCCCCCCCCCC(=O)[*:2]].P.K.R.R.S.A.D.I.F.P.[am]}|PEPTIDE2{[ac].P.[dK].R.R.S.A.D.I.F.P}$PEPTIDE1,PEPTIDE2,3:R3-11:R2$$$V2.0)	65		84	** (EC50 25-50 nM (hAPJ), % IA 50-79% and either % histamine>35% or formal (+) charge>1)						
CCCCCCCCCCCCCCCC(=O)N[C@H](C(=O)N[C@H](C(=O)N[C@@H](Cc1ccccc1)C(=O)N[C@@H](CCCNC(=N)N)C(=O)N[C@@H](CO)C(=O)N[C@@H](CO)C(=O)N[C@@H](CCC(=O)O)C(=O)N[C@H](C)C(=O)N[C@@H](CCCNC(=N)N)C(=O)N[C@@H](CCCNC(=N)N)C(=O)N[C@@H](CO)C(=O)N[C@@H](C)C(=O)N[C@@H](CC(=O)O)C(=O)N[C@H](C(=O)N[C@@H](Cc1ccccc1)C(=O)N[C@H](C(N)=O)[C@@H](C)CC)[C@@H](C)CC)C(C)C)[C@@H](C)O [Compound 10] (HELM PEPTIDE1{[CCCCCCCCCCCCCCCC(=O)[*:2]].T.V.F.R.S.S.E.[dA].R.R.S.A.D.I.F.I.[am]}$$$$V2.0)			106	** (EC50 25-50 nM (hAPJ), % IA 50-79% and either % histamine>35% or formal (+) charge>1)	3	39				
CCCCCCCCCCCCCCCC(=O)N[C@H](C(=O)N[C@H](C(=O)N[C@@H](Cc1ccccc1)C(=O)N[C@@H](CCCNC(=N)N)C(=O)N[C@@H](CO)C(=O)N[C@@H](CO)C(=O)N[C@@H](CCC(=O)O)C(=O)N[C@H](CCCCN)C(=O)N[C@@H](CCCNC(=N)N)C(=O)N[C@@H](CCCNC(=N)N)C(=O)N[C@@H](CO)C(=O)N[C@@H](C)C(=O)N[C@@H](CC(=O)O)C(=O)N[C@@H](Cc1ccc(-c2ccccc2)cc1)C(=O)N[C@@H](Cc1ccccc1)C(=O)N[C@H](C(N)=O)[C@@H](C)CC)C(C)C)[C@@H](C)O [Compound 11, TVFRSSEkRRSAD(Bip)FI] (HELM PEPTIDE1{[CCCCCCCCCCCCCCCC(=O)[*:2]].T.V.F.R.S.S.E.[dK].R.R.S.A.D.[O=C([C@H](Cc1ccc(-c2ccccc2)cc1)N[*:1])[*:2]].F.I.[am]}$$$$V2.0)	8	34	76	** (EC50 25-50 nM (hAPJ), % IA 50-79% and either % histamine>35% or formal (+) charge>1)						
CCCCCCCCCCCCCCCC(=O)N[C@H](C(=O)N[C@H](C(=O)N[C@@H](Cc1ccccc1)C(=O)N[C@@H](CCC(N)=O)C(=O)N[C@@H](CO)C(=O)N[C@@H](CO)C(=O)N[C@@H](CCC(=O)O)C(=O)N[C@H](CCCCN)C(=O)N[C@@H](CCCNC(=N)N)C(=O)N[C@@H](CCCNC(=N)N)C(=O)N[C@@H](CO)C(=O)N[C@@H](C)C(=O)N[C@@H](CC(=O)O)C(=O)N[C@@H](Cc1ccccc1)C(=O)N[C@H](C(N)=O)[C@@H](C)CC)C(C)C)[C@@H](C)O [Compound 15, Pal-TVFQSSEkRRSADFI-amide] (HELM PEPTIDE1{[CCCCCCCCCCCCCCCC(=O)[*:2]].T.V.F.Q.S.S.E.[dK].R.R.S.A.D.F.I.[am]}$$$$V2.0)	30	12	108	***** (EC50≦25 nM (hAPJ), % IA≧80% and either % histamine≦35% or formal (+) charge≦1)				≥ 80	inhibited	≤ 25

Source: US20160159861A1, “APJ Receptor Compounds” (priority 2013, published 2016)
